{
  "source": "patent US20240252549A1",
  "about": "“COMPOSITIONS AND METHODS TO TRANSFECT, TEST, AND TREAT SKIN CELLS” (The Regents of the University of Michigan, priority 2021, published 2024)",
  "key": {"IFNK": {"test_system": "IFNK", "test": "IFNK mRNA expression in keratinocytes (qRT-PCR)", "type": "cell-based, human", "conditions": "all KO KCs treated, FIG. 3B", "method": "(§1) Immortalized keratinocyte cell line, N/TERT1, was used with permission for generation of knock-out (KO) cell lines using non-homologous end joining via CRISPR/Cas9. […] N/TERTs were grown in Keratinocyte-SFM medium (ThermoFisher #17005-042) supplemented with 30 μg/ml bovine pituitary extract, 0.2 ng/ml epidermal growth factor, and 0.3 mM calcium chloride (2).\n(§2) CRISPR KO KCs were generated as previously described (3). In brief, Single-guide RNA (sgRNA) target sequence was developed using a web interface for CRISPR design (https://portals.broadinstitute.org/gpp/public/analysis-tools/sgrna-design). Synthetic sgRNA target sequences were inserted into a cloning backbone, pSpCas9 (BB)-2A-GFP (PX458) (Addgene plasmid #48138) and then cloned into competent E. coli (ThermoFisher #C737303). Proper insertion was validated by Sanger sequencing. […] Cells were then genotyped and analyzed by Sanger sequencing.\n(§3) RNA extraction, qRT-PCR and RNA-Sequencing were performed following the protocol published earlier (3). […] We used STAR to align RNA-seq reads to the human genome, using annotations of GENCODE as gene model. HTSeq was used to quantify gene expression levels; normalization and differential expression analysis were performed by DESeq2."}, "MX1": {"test_system": "MX1", "test": "MX1 (interferon-stimulated gene) mRNA expression in keratinocytes (qRT-PCR)", "type": "cell-based, human", "conditions": "all KO KCs treated, FIG. 7", "method": "as §1, §2, §3"}},
  "note": "“Also recorded” adds a separate entry of the source.",
  "data": [
    {"smiles": "Nc1ncn([C@H]2C[C@H](O)[C@@H](CO)O2)c(=O)n1", "note": "[5-dAza-c]", "values": [
      {"measurement": "IFNK mRNA expression in CRISPR-cas9 generated KO keratinocytes after demethylating agent", "setting": "IFNK", "result": "Reversal; also recorded: significant increase"},
      {"measurement": "MX1 mRNA expression in CRISPR-cas9 generated KO keratinocytes after demethylating agent", "setting": "MX1", "result": "significant increase"}
    ]}
  ]
}
